Measurements from patent publication US5814634A, “Alkylenediamine derivative anti-ulcer drug and antibacterial drug” (Shiseido Co. Ltd., priority 1996, dated 1998).

Legend:
stress ulcer = experiment: WIS: Restraint and Water Immersion Stress-Induced Ulcer Inhibition Test; assay type: in vivo, rat (male Crj:SD or Slc:SD); details: for WIS: ulcer formation inhibitory rate: 100 mg/kg oral, rats, water immersion stress 7 hours
Procedure: WIS: Restraint and Water Immersion Stress-Induced Ulcer Inhibition Test
The degree of inhibition of the stress ulcer formation is tested.
Male Crj:SD or Slc:SD rats (6 to 7-week-old) were fasted overnight, but allowed free access to water. Each group has 5 to 8 of these rats. The sample compound was dissolved or suspended in an aqueous solution of 0.3% sodium carboxymethylcellulose or 0.05% Tween 80 and then was orally administered (100 mg/10 ml/kg). To a control group, the vehicle was administered. 10 minutes later, the rats were placed in a stress cage and immersed to the level of xipfoid process in a water bath (21° C.) for 7 hours. At the end of the stress, the rats were sacrificed by inhalation of ether or carbon dioxide. Then, the stomach of each was removed, inflated by injecting 10 ml of 5% formalin neutral buffer solution, and immersed in 1% formalin neutral buffer solution for 30 minutes or more to be fixed. The stomach was incised along the greater curvature and then the length of each erosion in the glandular portion was determined under dissecting microscope. The sum of the length of erosions per stomach was defined as ulcer index (UI).
The effect obtained when 100 mg/kg of the sample compound had been administered was expressed as ulcer formation inhibitory rate (%) as follows: [formula] VOL, TAO: Acid Secretion Inhibition Test In Vivo i) Meaning

Male Slc:ICR mice = tested on: Male Slc:ICR mice; design: species or system mouse (male Slc:ICR); details: mouse, in vivo
Procedure: AT: Single Dose Toxicity Pretest
Male Slc:ICR mice (5-week-old) were used. Each group has 3 to 5 mice and each mouse was fasted, but allowed free access to water, for 4 to 5 hours from 9 a.m. in the test day. Then, 2,000 mg/10 ml/kg of the sample compound dissolved or suspended in an aqueous solution of 0.5% sodium carboxymethyl cellulose was orally administered thereto. To a control, only the vehicle was administered. […] The body weight was measured before and after the fasting as well as at the same time everyday. The dead animals were immediately subjected to autopsy and their organs were observed microscopically. Also, the living animals were sacrificed with ether or carbon dioxide one week after the administration and then their organs were observed microscopically.
The toxicity at the single dose of 2,000 mg/kg of the sample compound was expressed as being classified into 5 levels.
5: Mortality rate is 0%; no toxicity is found at all both in behavior and organs.
4: Mortality rate is 0%; while no toxicity is found in organs, slight toxicity is observed in behavior and body weight increase.
3: While there is a dead animal (though not all the animals are dead), no toxicity is found in organs.
2: Regardless of whether there is a dead animal or not, toxicity is found in organs.
1: All the animals are dead.

in vitro = details: rabbit, gastric mucosal cells
gastric mucosa = experiment: PD: Gastric Mucosal Integrity Test (gastric mucosal potential difference); assay type: in vivo, rat (male Crj:SD); design: key: 5: Same as the control with no recognizable damage at all.; 4: Though a slight PD-decreasing tendency suggesting a slight possibility of mucosal damage is found, there is no problem.; 3: Though a weak decrease in PD and a possibility of a weak mucosal damage is recognized, there is no substantial problem.; 2: Medium degree of decrease in PD is found and a mucosal damage is recognized.; 1: Heavy degree of decrease in PD is found and a remarkable mucosal damage is recognized; details: 100 mg/kg into chamber, rats, 60 minutes
Procedure: PD: Gastric Mucosal Integrity Test
In this case, since the sample compound has a necrotizing effect, it is inappropriate as an anti-ulcer medicament.
Therefore, the gastric mucosal potential difference (PD), which reflects the integrity of the gastric mucosa, is measured so as to confirm that the sample compound has no damaging effect on gastric mucosa, which is toxicity at gastric mucosal level.
Male Crj:SD rats (7 to 8-week-old) were fasted overnight, but allowed free access to water, and then, under urethane anesthesia (1.25 g/kg, i.p.), fixed to a cork board on its back. The abdomen of each rat was incised, and a small incision was made in the forestomach. Then, the inside of the stomach was washed with physiological saline heated at 37° C. From the forestomach, along the greater curvature thereof, the stomach was incised without damaging blood vessels. After the height of the cork board was adjusted on a jack, the stomach was mounted on ex vivo chamber. The area of the gastric mucosa exposed to the inside of this chamber was 2.5 cm^2. The inside of the chamber was perfused with physiological saline warmed at 37° C. by micro tube pump. By using an agar bridge containing 3M KCl, the potential difference between the chamber and the abdominal cavity was measured by a PD meter. Here, the rectal temperature was measured to control the body temperature during the experiment. After the PD was sufficiently stabilized, the perfusate was stopped and then 100 mg/10 ml/kg of the sample compound dissolved or suspended in an aqueous solution of 0.5% sodium carboxymethyl cellulose or 0.05% Tween 80 was administered into the chamber, while PD was recorded for 60 minutes. To a control, the vehicle was administered.
The change in PD during 60 minutes after the administration of 100 mg/kg of the sample compound was collectively studied and, with reference to the positive control, classified into 5 levels as follows:
5: Same as the control with no recognizable damage at all.
3: Though a weak decrease in PD and a possibility of a weak mucosal damage is recognized, there is no substantial problem.
2: Medium degree of decrease in PD is found and a mucosal damage is recognized.
1: Heavy degree of decrease in PD is found and a remarkable mucosal damage is recognized.

[1] = tested on: isolated gastric fundic gland; experiment: CAP: Acid Secretion Inhibition Test In Vitro ([14C]-aminopyrine uptake); assay type: cell-based, rabbit (male Japanese White); details: Oryctolagus cuniculus, 40 min; 10^-5 M compound, 10^-5 M histamine, rabbit isolated gastric fundic gland, 37° C., 40 minutes; read-out: CAP: acid secretion inhibitory rate
Procedure: With respect to the gastric juice volume (VOL) and the total acid output (TAO), the effects obtained when 100 mg/kg of the sample compound had been administered were expressed as their respective inhibitory rates (%) as follows: [formula] CAP: Acid Secretion Inhibition Test In Vitro i) Meaning
The acid secretion inhibitory activity in a cell level is studied. It can also be used for studying the mechanism of the effect.
ii-a) Preparation of isolated gastric fundus gland suspension
First, an isolated gastric fundic gland sample was prepared. […] Immediately thereafter, the stomach was removed and, after its pyloric and cardiac antrum were severed, incised along its greater curvature into two sheets. The gastric contents adhering to the mucosal surface was washed out with ice-cooled PBS (-) and then carefully washed therein. The gastric wall was spread on a cork board with its mucosal surface facing up and the feed and mucus thereon were completely removed with sterile gauze. The mucosa was separated therefrom by a spatula and then collected in ice-cooled PBS (-). After being washed twice with PBS (-), the mucosa was minced into 2-3 mm^3 pieces by scissors. These pieces were further washed twice with a nutrient solution. The nutrient solution comprises 132.4 mM of NaCl, 5.4 mM of KCl, 5 mM of Na2 HPO4.12H2 O, 1 mM of NaH2 PO4.2H2 O, 1.2 mM of MgSO4, 1 mM of CaCl2, 25 mM of HEPES, 2 mg/ml of glucose, and 1 mg/ml of BSA. Into 70 ml of the nutrient solution containing 1 mg/ml of collagenase, minced mucosal pieces were dispersed and intensely stirred in a conical flask with a stirrer at 37° C. for 40 to 60 minutes. During this period, 100% O2 was sprayed on the nutrient solution surface and the pH was appropriately measured such that it was immediately adjusted to pH 7.4, when the value was therebelow, with a base. The nutrient solution was added to the reaction solution so as to attain the total amount of about 200 ml. After being filtered through a mesh, the suspension was divisionally introduced into 50 ml centrifuge tubes and left for 15 minutes such that gastric fundic gland was deposited. The supernatant was repeatedly removed by an aspirator, dispersed in the nutrient solution, and then left such that the gastric fundic gland was washed three times. At this time, without using a pipette, the suspension was alternately introduced into two centrifuge tubes so as to effect dispersion. The number of cells was counted under microscope and adjusted to 1.6×10^6 cells/ml.
ii-b) [^14 C]-aminopyrine uptake test
Then, [^14 C]-aminopyrine uptake test was performed. After an Eppendorf tube was weighed, 10 μl (final concentration: 10^-5 M) of histamine dissolved in the above-mentioned nutrient solution, 10 μl (final concentration: 10^-5 M) of the test compound dissolved in DMSO, and 10 μl (final concentration: 0.05 μCi/ml) of [^14 C]-aminopyrine diluted with the nutrient solution were introduced therein and then 970 μl of the isolated gastric fundic gland suspension prepared above was added thereto. Subsequently, this mixture was shaken at 37° C. for 40 minutes at 125 cycles/minute. After being centrifuged for 30 minutes, 200 μl of its supernatant was collected into a mini-vial, while the rest was removed by an aspirator. The gland pellet was completely dried as the tube with its lid being opened was kept for one night in a drying oven at 80° C. and then the lid was closed and the weight was determined at room temperature. Then 100 μl of 1N KOH was added thereto and the tube with its lid being closed was treated at 60° C. for 1 to 2 hours so as to dissolve the pellet. Then, the contents thereof were transferred to a mini-vial. Into the mini-vial containing the supernatant or gland pellet, 4 ml of Atomlite™ was added and then the radioactivity was measured by a liquid scintillation counter. […]

Compound	WIS: ulcer formation inhibitory rate (stress ulcer) [%]	effect (anti-ulcer tests) (stress ulcer; result in words, comparison of examples within compound group 1-1)	AT: toxicity at single dose, 5 levels (Male Slc:ICR mice)	cytotoxicity at 4 h, 100 µM (in vitro) [%]	PD: change in gastric mucosal potential difference, 5 levels (gastric mucosa)	inhibition at 10 µM [1] [%]	anti-ulcer effect (stress ulcer; result in words)
CC(C)=CCC/C(C)=C/COc1ccc(F)cc1C(=O)NCCN1CCCCC1 [Example 6]	80	the effect has been maintained	3	16			
CC(C)=CCC/C(C)=C/COc1ccc(C(=O)NCCN2CCCCC2)cc1OC/C=C(\C)CCC=C(C)C [Example 11]	91		4	23	5		
CC(C)=CCC/C(C)=C/COc1ccc(OC/C=C(\C)CCC=C(C)C)c(C(=O)NCCN2CCCCC2)c1 [Example 13]	67		5	-5		100	
CC(C)=CCC/C(C)=C/COc1cc(OC/C=C(\C)CCC=C(C)C)cc(C(=O)NCCN2CCCCC2)c1 [Example 14]	66		3	26			
CC(C)=CCOc1ccc(OCC=C(C)C)c(C(=O)NCCN2CCCCC2)c1 [Example 17]	70		3	-16		100	
CC(C)=CCOc1cc(C(=O)NCCN2CCCCC2)cc(OCC=C(C)C)c1OCC=C(C)C [Example 19]	57		4				
COc1ccc(OC/C=C(\C)CCC=C(C)C)c(C(=O)NCCN2CCCCC2)c1 [Example 20]	71		3	35			
COc1ccc(C(=O)NCCN2CCCCC2)cc1OC/C=C(\C)CCC=C(C)C [Example 23]	56		3	43			
COc1cc(C(=O)NCCN2CCCCC2)cc(OC/C=C(\C)CCC=C(C)C)c1OC [Example 24]	72		5	30			more anti-ulcer effect
COc1cc(C(=O)NCCN2CCCCC2)ccc1OC/C=C(\C)CCC=C(C)C [Example 25]	44		3	48			
COc1cc(C(=O)NCCN2CCCCC2)cc(OC)c1OCC=C(C)C [Example 27]	82			-11	5		
CC(C)=CCC/C(C)=C/COc1cccc(C(=O)NCCN2CCOCC2)c1 [Example 29]	63		5	16		99	
CC(C)=CCC/C(C)=C/CC/C(C)=C/COc1ccc(C(=O)NCCN2CCOCC2)cc1 [Example 32]	55		5	58		99	
CC(C)=CCOc1cc(C(=O)NCCN2CCOCC2)cc(OCC=C(C)C)c1OCC=C(C)C [Example 39]	76		4				
COc1cc(C(=O)NCCN2CCOCC2)cc(OC)c1OC/C=C(\C)CCC=C(C)C [Example 42]	69		4	0		102	
COc1cc(C(=O)NCCN2CCOCC2)cc(OC)c1OC/C=C(/C)CCC=C(C)C [Example 43]	41		4	10	5		
COc1cc(C(=O)NCCN2CCOCC2)cc(OC/C=C(\C)CCC=C(C)C)c1OC [Example 44]	61		4	22		100	
